According to ChEMBL document CHEMBL1152338, “Discorhabdins revisited: cytotoxic alkaloids from southern australian marine sponges of the genera Higginsia and Spongosorites” (J Nat Prod, 2009):
Values after ≈ are worked out from the molar mass of the structure shown.

Experiments:
Type in all cases: functional, cell-based
MDA-MB-231 = experiment: Cytotoxicity against human MDA-MB-231 cells
A549 = experiment: Cytotoxicity against human A549 cells
HT-29 = experiment: Cytotoxicity against human HT-29 cells

SMILES	IC50 (MDA-MB-231)	IC50 (A549)	IC50 (HT-29)
O=C1C2=C3C4=[N+](CCc5c[nH]c1c54)[C@@H]1[C@H](O)C=C4S[C@@H](C[C@@]43[C@H]1O)N2	0.1 µg/mL	0.1 µg/mL	0.1 µg/mL
O=C1C2=C(C3=NCCc4c[nH]c1c43)[C@]13C=C(Br)[C@@H](O)C[C@H]1S[C@@H](C3)N2	0.1 µg/mL (≈ 0.239 µM)	0.1 µg/mL (≈ 0.239 µM)	0.1 µg/mL (≈ 0.239 µM)
CN1CCc2cn(C)c3c2C1=CC(=O)C3=O [DAMIRONE A]	5 µg/mL (≈ 23.1 µM)	5 µg/mL (≈ 23.1 µM)	5 µg/mL (≈ 23.1 µM)
O=C1C[C@H]2S[C@H]3C[C@]2(C=C1Br)C1=C(N3)C(=O)c2[nH]cc3c2C1=NCC3 [DISCORHABDINE A]	0.05 µg/mL (≈ 0.12 µM)	0.05 µg/mL (≈ 0.12 µM)	0.05 µg/mL (≈ 0.12 µM)
C[N+]1=C2C=C(NCCc3ccc(O)cc3)C(=O)c3[nH]cc(c32)CC1 [MAKALUVAMINE J]	5 µg/mL	5 µg/mL	5 µg/mL
